This is an account of results in publication PMC3500438 (Organic letters, 2012).

Entries after “also recorded” stand apart in the source; their conditions may differ. Bounds are passed on as bounds.

The subject of one data set is rat PDE4 (Rolipram). Kind of data set: rat Rolipram radioligand binding. Particulars: for IC50: read-out: rat Rolipram IC50; for IC50 / Ki: Wistar rat brain, 1.8 nM [3H] rolipram, 1% DMSO, 60 min at 4 °C, 50 mM Tris-HCl, pH 7.4; for Ki: read-out: rat Rolipram Ki. Also noted: species or system Wistar rat.
Data set [1] has as its system 97 kinases (both wild-type and mutants). Kind of data set: KINOMEscan panel. Format: binding. The note with it: 10 μM.
In a further data set the target is 5-HT2B (Homo sapiens, UniProt P41595). Kind of data set: Lead Profiling screen radioligand binding, 5-HT2B.
5-HT2B, sequence (P41595 whole entry, species assumed): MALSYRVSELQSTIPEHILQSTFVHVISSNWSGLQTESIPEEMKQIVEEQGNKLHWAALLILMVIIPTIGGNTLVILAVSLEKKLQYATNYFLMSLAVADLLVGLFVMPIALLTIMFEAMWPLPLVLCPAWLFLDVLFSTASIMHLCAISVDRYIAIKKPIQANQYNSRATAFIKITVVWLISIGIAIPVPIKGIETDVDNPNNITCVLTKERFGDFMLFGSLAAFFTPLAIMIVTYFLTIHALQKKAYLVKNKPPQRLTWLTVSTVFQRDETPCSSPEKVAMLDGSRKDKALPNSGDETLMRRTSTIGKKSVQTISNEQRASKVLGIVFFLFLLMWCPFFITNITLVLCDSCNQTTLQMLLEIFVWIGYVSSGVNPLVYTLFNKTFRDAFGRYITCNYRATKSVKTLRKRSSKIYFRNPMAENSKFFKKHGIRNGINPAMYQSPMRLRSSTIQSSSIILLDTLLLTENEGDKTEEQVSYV
For data set [2], the system named is 68 GPCRs, ion channels and transporters. Kind of data set: Lead Profiling screen. The note with it: 10 μM, 68 targets. In kind it is binding.
For data set [3] the following is noted: cited from earlier work.
Another data set concerns healthy cells. Particulars: cited from earlier work.

As usually defined, the IC50 is the concentration that inhibits the measured activity by half. By Ki is commonly meant the dissociation constant of the complex between target and ligand, obtained from inhibition or displacement. With `Cc1nc2ccccc2c2cc[nH]c12` [compound 1, marinoquinoline A], the “PDE4 activity (in words)” value with rat PDE4 (Rolipram) (rat PDE4 (Rolipram) and human PDE4) is “inactive”. Besides, on rat PDE4 (Rolipram), the IC50 was greater than 100 µM and the Ki is greater than 100000 nM.

In the case of `Nc1ncnc2c1ncn2Cc1nc2ccccc2c2cc[nH]c12` [compound 6, aplidiopsamine A], the “PDE4/Rolipram activity in radioligand binding panel” value in the data set on rat PDE4 (Rolipram) (10 μM) came to 74%. The IC50 at rat PDE4 (Rolipram) was determined as 3.3 µM. Besides, the Ki on rat PDE4 (Rolipram) was 1200 nM; at 5-HT2B (read-out: 5-HT2B Ki, full concentration-response-curve), roughly 10 µM. Besides, in data set [1], the “activity in KINOMEscan panel” value is “uniformly inactive”. In addition, the “5-HT2B activity in radioligand binding panel” value on 5-HT2B (10 μM) turned out to be 62%. The “ancillary pharmacology in Lead Profiling screen” value in data set [2] was “activity at only two targets”. Also, the antimalarial activity result in data set [3] is recorded as “potent antimalarial agent”. In the data set on healthy cells, the “toxicity to healthy cells / cytotoxicity” value is “without toxicity to healthy cells; also recorded: not be cytotoxic”.
